Results from the supplement of paper PMC10307832.

Assays:
Assay in all cases: relative viability (nuclei count vs DMSO), 5 days (fraction); higher = more cells survive
Motesanib + Olaparib = compound: CC1(C)CNc2cc(NC(=O)c3cccnc3NCc3ccncc3)ccc21 [Motesanib] + O=C(c1cc(Cc2n[nH]c(=O)c3ccccc23)ccc1F)N1CCN(C(=O)C2CC2)CC1 [Olaparib] (partner 8 µM)
Summary of the method: (§1)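 Lung cancer cell lines, seeded in 1536-well plates, were treated the following day by pin tool with a single drug or with five library-drug doses (not always all listed) in √10 steps on top of a fixed anchor-drug dose. Cells were fixed and nuclei stained in one step after 5 days, and nuclei were counted. Relative viability is the nuclei count for treated wells divided by that for vehicle wells, reported as medians of duplicate plates.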

[1] = compound: C[C@@]1(C(=O)Nc2ccc(F)nc2)CCCN1c1nc(Nc2cc(C3CC3)n[nH]2)c2cccn2n1 + CC(=O)Nc1cccc(-n2c(=O)n(C3CC3)c(=O)c3c(Nc4ccc(I)cc4F)n(C)c(=O)c(C)c32)c1 [Trametinib] (partner 0.02 µM)
Summary of the method: as §1

[2] = compound: C[C@@]1(C(=O)Nc2ccc(F)nc2)CCCN1c1nc(Nc2cc(C3CC3)n[nH]2)c2cccn2n1 + COc1cccc2cc(-c3nc([C@H]4CC[C@H](C(=O)O)CC4)n4ncnc(N)c34)[nH]c12 [OSI-027] (partner 0.5 µM)
Summary of the method: as §1

[3] = compound: C[C@@]1(C(=O)Nc2ccc(F)nc2)CCCN1c1nc(Nc2cc(C3CC3)n[nH]2)c2cccn2n1 + C[C@@H](Oc1cc(-c2cnn(C3CCNCC3)c2)cnc1N)c1c(Cl)ccc(F)c1Cl [Crizotinib] (partner 1 µM)
Summary of the method: as §1

| Cell Line | relative viability (Motesanib + Olaparib; first compound 0.01 µM) | relative viability (Motesanib + Olaparib; first compound 0.03162 µM) | relative viability (Motesanib + Olaparib; first compound 0.1 µM) | relative viability (Motesanib + Olaparib; first compound 0.3162 µM) | relative viability (Motesanib + Olaparib; first compound 1 µM) | relative viability ([1]; first compound 0.04 µM) | relative viability ([1]; first compound 0.1265 µM) | relative viability ([1]; first compound 0.4 µM) | relative viability ([1]; first compound 1.265 µM) | relative viability ([2]; first compound 0.04 µM) | relative viability ([2]; first compound 0.1265 µM) | relative viability ([2]; first compound 0.4 µM) | relative viability ([2]; first compound 1.265 µM) | relative viability ([3]; first compound 0.04 µM) | relative viability ([3]; first compound 0.1265 µM) | relative viability ([3]; first compound 0.4 µM) | relative viability ([3]; first compound 1.265 µM) |
| --- | --- | --- | --- | --- | --- | --- | --- | --- | --- | --- | --- | --- | --- | --- | --- | --- | --- |
| NCI-H2228 | 0.794 | 0.74 | 0.668 | 0.838 | 0.749 | 0.485 | 0.287 | 0.276 | 0.302 | 0.495 | 0.187 | 0.227 | 0.229 | 0.395 | 0.342 | 0.262 | 0.255 |
| PC-14 | 0.224 | 0.32 | 0.322 | 0.258 | 0.204 | 0.765 | 0.649 | 0.696 | 0.687 | 0.869 | 0.284 | 0.563 | 0.279 | 0.901 | 0.806 | 0.758 | 0.763 |
| NCI-H1437 | 0.637 | 0.631 | 0.63 | 0.682 | 0.657 | 0.404 | 0.3 | 0.277 | 0.277 | 0.703 | 0.272 | 0.208 | 0.205 | 0.932 | 0.714 | 0.561 | 0.762 |
| NCI-H460 | 0.413 | 0.396 | 0.484 | 0.446 | 0.402 | 0.159 | 0.0315 | 0.0726 | 0.0967 | 0.538 | 0.252 | 0.29 | 0.313 | 0.985 | 0.699 | 0.639 | 0.331 |
| NCI-H1666 | 0.743 | 0.761 | 0.776 | 0.851 | 0.705 | 0.826 | 0.688 | 0.697 | 0.755 | 0.611 | 0.488 | 0.568 | 0.426 | 0.811 | 0.845 | 0.708 | 0.574 |
| NCI-H1651 | 0.176 | 0.192 | 0.213 | 0.202 | 0.201 | 0.723 | 0.798 | 0.712 | 0.757 | 0.658 | 0.525 | 0.423 | 0.501 | 0.762 | 0.896 | 0.775 | 0.846 |
| NCI-H1755 | 0.795 | 0.877 | 0.774 | 0.923 | 0.9 | 0.661 | 0.692 | 0.734 | 0.744 | 0.695 | 0.355 | 0.589 | 0.484 | 0.919 | 0.793 | 0.756 | 0.836 |
| NCI-H661 | 0.748 | 0.76 | 0.784 | 0.749 | 0.774 | 0.605 | 0.55 | 0.591 | 0.555 | 0.592 | 0.564 | 0.249 | 0.529 | 0.983 | – | 1.01 | – |
| HARA | 0.761 | 0.937 | 1.06 | 0.902 | 1.05 | 0.66 | 0.331 | 0.483 | 0.618 | 0.439 | 0.208 | 0.171 | 0.25 | 1.02 | 0.995 | 1.21 | 1.1 |
| NCI-H596 | 0.792 | 0.623 | 0.648 | 0.677 | 0.646 | 0.912 | 0.72 | 0.654 | 0.748 | 0.63 | 0.557 | 0.555 | 0.793 | 1.05 | 0.984 | 0.857 | 1.06 |
| NCI-H23 | 0.354 | 0.299 | 0.308 | 0.281 | 0.348 | 0.233 | 0.199 | 0.178 | 0.252 | 0.397 | 0.232 | 0.225 | 0.266 | 0.49 | 0.292 | 0.2 | 0.35 |
| LCLC-97TM1 | 0.373 | 0.414 | 0.501 | 0.476 | 0.287 | 0.232 | 0.0949 | 0.0995 | 0.13 | 0.284 | 0.111 | 0.122 | 0.112 | 0.184 | 0.186 | 0.12 | 0.187 |
| EPLC-272H | 0.779 | 1.33 | 0.759 | 0.689 | 0.745 | 0.266 | 0.252 | 0.234 | 0.231 | 0.301 | – | 0.24 | 0.189 | 0.977 | 0.857 | 0.676 | 1.16 |
| NCI-H1915 | 0.246 | 0.262 | 0.258 | 0.277 | 0.286 | 0.316 | 0.261 | 0.272 | 0.338 | 0.612 | 0.628 | 0.592 | 0.604 | 0.932 | 0.874 | 0.898 | 0.952 |
| NCI-H2405 | 0.741 | 0.808 | 0.859 | 0.837 | 0.832 | 0.461 | 0.382 | 0.353 | 0.381 | 0.401 | 0.294 | 0.269 | 0.272 | 0.862 | 0.759 | 0.649 | 0.889 |
| NCI-H322M | 0.82 | 0.762 | 0.886 | 0.803 | 0.812 | 0.435 | 0.428 | 0.334 | 0.347 | 0.483 | 0.364 | 0.363 | 0.321 | 1.04 | 0.75 | 0.613 | 1.15 |
| NCI-H2170 | 0.694 | 0.656 | 0.599 | 0.61 | 0.684 | 0.951 | 0.966 | 0.894 | 0.992 | 0.721 | 0.525 | 0.592 | 0.564 | 1.09 | 1.11 | 1.03 | 1.27 |
| NCI-H358 | 0.507 | 0.652 | 0.626 | 0.658 | 0.633 | 0.129 | 0.106 | 0.112 | 0.101 | 0.415 | 0.179 | 0.15 | 0.138 | 0.474 | 0.394 | 0.241 | 0.216 |
| NCI-H838 | 0.778 | 0.765 | 0.792 | 0.746 | 0.804 | 0.496 | 0.46 | 0.346 | 0.36 | 0.362 | 0.192 | 0.182 | 0.28 | 0.868 | 0.67 | 0.621 | 0.708 |
| CAL-12T | 0.674 | 0.731 | 0.699 | 0.683 | 0.736 | 0.333 | 0.214 | 0.351 | 0.253 | 0.486 | 0.382 | 0.292 | 0.275 | 0.509 | 0.487 | 0.346 | 0.161 |
